Activity calls are given as the source filed them. Some results are limits rather than exact numbers.

Data set [1] addresses T1, Rac GTPase-activating protein 1 (Homo sapiens, UniProt Q9H0H5).
T1 sequence (Q9H0H5 whole entry): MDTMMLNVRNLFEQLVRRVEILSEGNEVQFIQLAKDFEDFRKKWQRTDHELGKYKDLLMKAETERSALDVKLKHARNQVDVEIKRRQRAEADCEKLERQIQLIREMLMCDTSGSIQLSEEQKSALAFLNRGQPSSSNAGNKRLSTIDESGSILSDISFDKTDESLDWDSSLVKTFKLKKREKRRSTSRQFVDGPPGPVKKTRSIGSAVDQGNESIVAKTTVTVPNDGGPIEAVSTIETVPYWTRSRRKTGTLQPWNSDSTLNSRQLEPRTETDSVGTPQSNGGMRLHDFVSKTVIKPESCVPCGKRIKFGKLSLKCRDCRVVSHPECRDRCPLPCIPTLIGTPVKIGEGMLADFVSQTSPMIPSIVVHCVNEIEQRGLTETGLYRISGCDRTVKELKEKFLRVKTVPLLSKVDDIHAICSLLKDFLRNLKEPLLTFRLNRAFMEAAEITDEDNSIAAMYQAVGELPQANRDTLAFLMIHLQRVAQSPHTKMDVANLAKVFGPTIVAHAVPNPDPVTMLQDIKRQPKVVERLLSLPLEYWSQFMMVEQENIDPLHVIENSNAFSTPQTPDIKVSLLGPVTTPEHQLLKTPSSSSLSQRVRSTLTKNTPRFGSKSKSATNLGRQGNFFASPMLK
Description: MgcRacGAP GTPase-activating activity inhibitors, confirmation, biochemical, ADP Hunter fluorescence, primary and confirmatory (AID 624330). The class given is functional.

The target in a further data set is Cytochrome P450 2C19 (Homo sapiens, UniProt P33261). Description: Cytochrome panel assay with activity outcomes. Panel member name: p450-cyp2c19 Compounds with AC50 equal or less than 10 uM are considered active. The data set is classed as functional.
The next data set deals with Cytochrome P450 2C9 (Homo sapiens, UniProt P11712).
The next data set deals with Cytochrome P450 3A4 (Homo sapiens, UniProt P08684).
Data set [2] can be described thus: Luminescence Cell-Based Dose Confirmation HTS to Identify Activators of 5'UTR Stem-Loop Driven Alpha-Synuclein mRNA Translation in H4 Neuroglioblastoma Cells. [Related pubchem assays: 1829 (Project Summary), 1814 (Primary HTS)]. The data set is classed as functional.
The nature of data set [3]: Luminescence Cell-Based Dose Response HTS to Identify Activators of Luciferase Translation or Activity in H4 […] Cells. [Related pubchem assays: 1829 (Project Summary), 1814 (Primary HTS)]. The class given is functional.
For another data set, the system named is H4. As to the kind of experiment: Luminescence Cell-Based Dose Response HTS to Identify Activators of 5'UTR Stem-Loop Driven Prion Protein mRNA Translation in H4 Neuroglioblastoma Cells. [Related pubchem assays: 1829 (Project Summary), 1814 (Primary HTS)]. The class given is functional. The note with it: Homo sapiens.
A short description of data set [4]: Luminescence Cell-Based Dose Retest to Confirm Inhibitors of Cancer Stem Cells. [Related pubchem assays (depositor defined):AID2717, AID2721]. The note with it: Homo sapiens. The class given is functional.
The target in a further data set is T2, Cytochrome P450 1A2 (Homo sapiens, UniProt P05177).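 Also: PubChem cytochrome P450 panel assay, CYP1A2 panel member.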
T2 sequence (P05177 whole entry): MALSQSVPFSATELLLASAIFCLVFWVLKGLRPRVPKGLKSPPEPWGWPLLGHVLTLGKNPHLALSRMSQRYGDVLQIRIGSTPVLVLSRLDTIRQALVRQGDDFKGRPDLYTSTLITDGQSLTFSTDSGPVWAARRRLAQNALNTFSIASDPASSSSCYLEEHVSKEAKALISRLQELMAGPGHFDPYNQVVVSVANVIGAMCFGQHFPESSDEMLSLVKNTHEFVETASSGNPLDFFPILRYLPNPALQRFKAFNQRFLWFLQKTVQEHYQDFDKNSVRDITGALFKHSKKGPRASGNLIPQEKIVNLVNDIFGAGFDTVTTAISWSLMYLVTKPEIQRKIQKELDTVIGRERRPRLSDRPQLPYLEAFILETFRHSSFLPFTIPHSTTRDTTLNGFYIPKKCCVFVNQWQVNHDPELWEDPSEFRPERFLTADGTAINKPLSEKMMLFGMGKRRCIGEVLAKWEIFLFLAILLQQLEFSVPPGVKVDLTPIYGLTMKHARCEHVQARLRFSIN

Data set [5] in a line: NIH-3T3 fibroblast cytotoxicity, dose response, cytotoxicity control, cell-based, fluorescence, Alamar Blue, secondary assay (AID 2327).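 Also: NIH-3T3 mouse fibroblasts cultured with fluconazole at 8 µg/mL.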 The class given is functional.
Data set [6] can be described thus: C. albicans growth with fluconazole, confirmation, fluorescence, retest (AID 2467). The data set is classed as functional, cell-based.
A short description of a further data set: cells. The data set is classed as functional.

Chain of Cytochrome P450 2C9 (P11712 whole entry): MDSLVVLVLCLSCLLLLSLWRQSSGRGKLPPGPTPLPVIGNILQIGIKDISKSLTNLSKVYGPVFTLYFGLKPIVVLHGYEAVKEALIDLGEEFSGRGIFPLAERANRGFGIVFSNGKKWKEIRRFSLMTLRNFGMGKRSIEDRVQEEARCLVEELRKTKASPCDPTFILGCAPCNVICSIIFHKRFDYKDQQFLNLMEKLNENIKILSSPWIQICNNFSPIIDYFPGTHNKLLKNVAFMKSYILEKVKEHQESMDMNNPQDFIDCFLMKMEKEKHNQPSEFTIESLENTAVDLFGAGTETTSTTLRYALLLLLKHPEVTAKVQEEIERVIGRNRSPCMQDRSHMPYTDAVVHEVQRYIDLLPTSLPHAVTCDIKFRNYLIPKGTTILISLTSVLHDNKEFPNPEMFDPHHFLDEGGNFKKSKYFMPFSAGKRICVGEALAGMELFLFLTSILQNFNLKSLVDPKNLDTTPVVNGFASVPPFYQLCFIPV
Chain of Cytochrome P450 2C19 (P33261 whole entry): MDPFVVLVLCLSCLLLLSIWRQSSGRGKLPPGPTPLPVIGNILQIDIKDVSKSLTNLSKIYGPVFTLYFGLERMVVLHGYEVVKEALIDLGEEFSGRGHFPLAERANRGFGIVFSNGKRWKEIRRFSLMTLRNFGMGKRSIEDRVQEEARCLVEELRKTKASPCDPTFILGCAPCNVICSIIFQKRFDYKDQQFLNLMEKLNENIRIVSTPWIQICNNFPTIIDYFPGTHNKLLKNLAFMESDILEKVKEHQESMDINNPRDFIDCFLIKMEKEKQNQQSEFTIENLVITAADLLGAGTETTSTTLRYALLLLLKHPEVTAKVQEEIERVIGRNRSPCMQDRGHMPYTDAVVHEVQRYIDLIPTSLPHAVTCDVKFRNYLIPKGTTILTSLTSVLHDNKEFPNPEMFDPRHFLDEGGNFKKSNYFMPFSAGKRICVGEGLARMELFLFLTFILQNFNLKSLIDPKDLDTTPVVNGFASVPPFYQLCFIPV
Chain of Cytochrome P450 3A4 (P08684 whole entry): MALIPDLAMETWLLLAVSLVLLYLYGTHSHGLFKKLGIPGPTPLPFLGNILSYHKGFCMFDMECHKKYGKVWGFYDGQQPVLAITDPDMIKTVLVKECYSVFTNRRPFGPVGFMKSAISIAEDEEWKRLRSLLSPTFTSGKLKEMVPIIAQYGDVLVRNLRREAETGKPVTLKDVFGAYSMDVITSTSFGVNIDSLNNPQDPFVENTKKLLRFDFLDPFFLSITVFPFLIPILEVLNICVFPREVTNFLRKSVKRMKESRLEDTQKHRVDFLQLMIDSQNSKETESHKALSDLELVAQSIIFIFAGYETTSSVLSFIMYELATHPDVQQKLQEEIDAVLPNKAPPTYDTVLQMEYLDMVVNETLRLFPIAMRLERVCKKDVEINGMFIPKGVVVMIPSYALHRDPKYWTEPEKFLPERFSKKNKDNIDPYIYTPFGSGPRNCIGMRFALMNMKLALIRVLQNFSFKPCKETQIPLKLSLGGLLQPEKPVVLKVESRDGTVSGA

Turning to `COC(=O)c1cc(NCc2cccs2)ccc1N1CCOCC1`, in data set [1], the IC50 (usually the concentration at which inhibition is half-maximal) is 135 µM (active).

Take `CCCCc1cc(=O)oc2cc(OCC(=O)N(CC)CC)ccc12`: the AC50 – broadly, the concentration at which the activity in the assay is half-maximal – was 31.6 µM (inconclusive) at Cytochrome P450 2C19 (read-out: AC50) and 25.1 µM (inconclusive) at Cytochrome P450 2C9.

As to `CC(C)[C@@H]1O[C@H](/C=C\c2ccccc2)OCC1(C)C`, the AC50 is 5.01 µM (inconclusive) at Cytochrome P450 2C19 (read-out: AC50), 5.01 µM (inconclusive) on Cytochrome P450 3A4 and 3.16 µM (inconclusive) on Cytochrome P450 2C9.

Turning to `O=C(c1cc(-c2cccc(Cl)c2)on1)N1CCOCC1`, the EC50 (usually the concentration needed to bring the measured effect to its halfway point) in [2] was 4.22 µM (active); in data set [3], 26.4 µM (active); in the data set with H4, 21.1 µM (active).

For `Cc1cc(C)c(C)c(S(=O)(=O)N2CCN(c3ccc(O)cc3)CC2)c1C`, the AC50 in [4] is 8.83 µM (active). For the same compound, the IC50 in data set [1] is 85.9 µM (active).

Regarding `O=c1c(-c2ccccc2)nc2cnc(N3CCOCC3)nc2n1Cc1ccc(F)cc1`, the AC50 is 20 µM (inconclusive) at Cytochrome P450 1A2 and 15.8 µM (inconclusive) on Cytochrome P450 2C9.

As to `O=C(CN1C(=O)S/C(=C\C=C\c2ccccc2)C1=O)Nc1cccc(O)c1`, the EC50 was 16.4 µM (active) in data set [2], 40.1 µM (active) in data set [3] and 49.2 µM (active) with H4.

Regarding `Cc1cccc2cc(C#N)c(SCc3nnc(-c4ccccc4[N+](=O)[O-])o3)nc12`, the results for the EC50 (in data set [2]; in data set [3]; with H4) were > 120 µM (not active), 75.4 µM (active) and 18.4 µM (active), respectively.

Consider `Cc1cccc(/C=N/c2ccc3c4c(cccc24)CC3)c1O`, for which the IC50 in [1] is 20 µM (active).

`Cc1ccc(C(C)(C)NC(=O)C2CCC(=O)N(C3CCCCCC3)C2)cc1` (configuration not stated): the half-maximal effective concentration (EC50) in data set [2] is 83.3 µM (active); in [3], 10.2 µM (active); with H4, > 120 µM (not active).

For the compound `O=C1c2ccccc2C(Cc2ccncc2)(Cc2ccncc2)c2ccccc21`, the AC50 at Cytochrome P450 1A2 was 39.8 µM (inconclusive); at Cytochrome P450 2C9 it was 20 µM (inconclusive).

`Cc1ccc(-c2cc(C(=O)N3CCCc4ccccc43)no2)cc1`: the EC50 in data set [2] was 52.4 µM (active); in [3] it was > 120 µM (not active); in the data set with H4 it was 11.8 µM (active).

Consider `C/C(=N\N1C(=O)CSC1=S)c1ccc(Br)cc1`, for which the results for the EC50 in data set [5] and in [6] were > 160 µM (inactive) and > 38 µM (not active), respectively.

For `O=C(Nc1nnc(-c2ccccn2)o1)c1ccc(Br)cc1`, the EC50 in data set [5] was 18.3 µM (inconclusive); in data set [6] it was > 38 µM (not active).

On to `Cc1ccc(NC(=O)CCNCc2ccco2)cc1S(=O)(=O)N(C)C`, for which, in data set [1], the IC50 is 229 µM (active).

As to `COC(=O)C1C(=O)C=C(Nc2ccc(F)cc2F)CC1c1ccccc1` (configuration not stated), the EC50 in data set [2] was > 120 µM (not active); in [3] it was 95.6 µM (active); in the data set with H4 it was 17.6 µM (active).

For the compound `N=c1n(CCN2CCOCC2)c2ccccc2n1CC(=O)c1ccc(Cl)c(Cl)c1`, the EC50 is > 120 µM (not active) in [2], > 120 µM (not active) in [3] and 41.8 µM (inconclusive) in the data set on H4.

For `O=C(Cn1c2ccc(F)cc2c2nc3n(c(=O)c21)CCS3)N1CCCC1`, the EC50 was > 160 µM (inactive) in [5] and 0.66 µM (active) in data set [6].

`Oc1ccc(NCc2ccc(OCc3ccccc3)cc2)cc1`: the IC50 in data set [1] is 60.5 µM (active).

Turning to `CCN1C(=O)C2(SC(NC(C)=O)=NN2C(C)=O)c2cc(C)ccc21` (configuration not stated), the AC50 on Cytochrome P450 2C19 (read-out: AC50) was 14.1 µM (inconclusive); on Cytochrome P450 2C9, 31.6 µM (inconclusive).

As for `Cc1ccc(C(=O)NC(=S)Nc2cccc3nsnc23)cc1`, the AC50 result was “inconclusive” on Cytochrome P450 2C19 and 35.5 µM (inconclusive) on Cytochrome P450 2C9.

Consider `O=[N+]([O-])c1ccc(N2CCN(Cc3ccc([N+](=O)[O-])o3)CC2)cc1`, for which the EC50 in data set [5] was > 150 µM (inactive); in data set [6] it was > 38 µM (not active). Besides, the IC50 in the data set “cells” was < 0.1 µM (active).

Consider `O=c1c(CCc2ccccc2)nc2cnc(N3CCOCC3)nc2n1CCc1ccccc1`, for which the half-maximal activity concentration (AC50) on Cytochrome P450 1A2 is 25.1 µM (inconclusive); at Cytochrome P450 2C9, 2 µM (inconclusive).

As for `COc1cc(/C=C/C(=O)OCC(=O)c2ccc(OC(F)F)cc2)ccc1O`, the IC50 in data set [1] was 64 µM (active).

As to `COc1cccc(/C=N/NC(=O)CCn2nnc3ccccc32)c1`, the EC50 (in data set [2]; in data set [3]; in the data set with H4) was > 120 µM (not active) throughout.

As to `Nc1cc(Cc2ccccc2)ccc1O`, the IC50 in data set [1] was 18 µM (active).

For `COc1ccccc1C(OC(=O)c1cccs1)C(=O)NCC1CCCO1` (configuration not stated), the concentration at half-maximal activity (AC50) is 5.01 µM (inconclusive) on Cytochrome P450 2C19 (read-out: AC50), 14.1 µM (inconclusive) on Cytochrome P450 1A2, 25.1 µM (inconclusive) on Cytochrome P450 3A4 and 14.1 µM (inconclusive) at Cytochrome P450 2C9.

For the compound `COC(=O)/C(=N\Nc1ccc(Cl)cc1)Sc1nnc(-c2ccc(OC)cc2)n1C`, the EC50 is > 160 µM (inactive) in data set [5] and > 38 µM (not active) in [6].

For the origin of these results see ChEMBL document CHEMBL1201862, “PubChem BioAssay data set” (2004).
